Assay results from US10112899B2 (ViiV HEALTHCARE UK LIMITED, priority 2014, dated 2018).

Tested on: HIV in the HTLV-1 transformed cell line MT-4
Test: organism not typed
Type: cell-based
Conditions: MT4, 96 h, MT-4 cells; luciferase/cell titer glo readout after 96 hours; 10 point dose response

Compound	IC50 [nM]
Cc1ccc(-c2c(C)c3c(c(C)c2[C@H](OC(C)(C)C)C(=O)O)CN(C(=O)N2CCC(C)(C)CC2)C3)cc1 [Example 84, (S)-2-(tert-butoxy)-2-(2-(4,4-dimethylpiperidine-1-carbonyl)-4,7-dimethyl-6-(p-tolyl)isoindolin-5-yl)acetic acid]	11
Cc1cc(C(=O)N2Cc3c(C)c(-c4cc(F)c5c(c4C)CCCO5)c([C@H](OC(C)(C)C)C(=O)O)c(C)c3C2)ccc1F (atropisomer, axis not shown; (M)) [Example 145, (S)-2-(tert-butoxy)-2-((M)-2-(4-fluoro-3-methylbenzoyl)-6-(8-fluoro-5-methylchroman-6-yl)-4,7-dimethylisoindolin-5-yl)acetic acid]	2
Cc1ccc(-c2c(C)c3c(c(C)c2[C@H](OC(C)(C)C)C(=O)O)CN(C(=O)N2C[C@H](C)OC[C@H]2C)C3)cc1 [Example 88, (S)-2-(tert-butoxy)-2-(2-((2S,5R)-2,5-dimethylmorpholine-4-carbonyl)-4,7-dimethyl-6-(p-tolyl)isoindolin-5-yl)acetic acid]	18
Cc1ccc(-c2c(C)c3c(c(C)c2[C@H](OC(C)(C)C)C(=O)O)CN(C(=O)c2cc(Cl)cc(Cl)c2)C3)cc1 [Example 271, (S)-2-(tert-butoxy)-2-(2-(3,5-dichlorobenzoyl)-4,7-dimethyl-6-(p-tolyl)isoindolin-5-yl)acetic acid]	8
Cc1ccc(-c2c(C)c3c(c(C)c2[C@H](OC(C)(C)C)C(=O)O)CN(C(=N)N2CCCCC2)C3)cc1 [Example 128, (S)-2-(tert-butoxy)-2-(2-(imino(piperidin-1-yl)methyl)-4,7-dimethyl-6-(p-tolyl)isoindolin-5-yl)acetic acid]	8540
Cc1ccc(-c2c(C)c3c(c(C)c2[C@H](OC(C)(C)C)C(=O)O)CN(C(=O)NCCOCc2ccccc2)C3)cc1 [Example 79, (2S)-2-(2-{[2-(benzyloxy)ethyl]carbamoyl}-4,7-dimethyl-6-(4-methylphenyl)-2,3-dihydro-1H-isoindol-5-yl)-2-(tert-butoxy)acetic acid]	231
Cc1ccc(-c2c(C)c3c(c(C)c2[C@H](OC(C)(C)C)C(=O)O)CN(S(=O)(=O)N2CCCCC2)C3)cc1 [Example 50, (2S)-2-(tert-butoxy)-2-[4,7-dimethyl-6-(4-methylphenyl)-2-(piperidine-1-sulfonyl)-2,3-dihydro-1H-isoindol-5-yl]acetic acid]	29
Cc1ccc(-c2c(C)c3c(c(C)c2[C@H](OC(C)(C)C)C(=O)O)CN(C(=O)c2ccc(F)c(C)c2)C3)cc1 [Example 246, (S)-2-(tert-butoxy)-2-(2-(4-fluoro-3-methylbenzoyl)-4,7-dimethyl-6-(p-tolyl)isoindolin-5-yl)acetic acid]	5
Cc1c(-c2c(C)c3c(c(C)c2[C@H](OC(C)(C)C)C(=O)O)CN(C(=O)c2cccc4c2OCCO4)C3)cc(F)c2c1CCCO2 (atropisomer, axis not shown; (M)) [Example 153, (S)-2-(tert-butoxy)-2-((M)-2-(2,3-dihydrobenzo[b][1,4]dioxine-5-carbonyl)-6-(8-fluoro-5-methylchroman-6-yl)-4,7-dimethylisoindolin-5-yl)acetic acid]	4
Cc1ccc(-c2c(C)c3c(c(C)c2[C@H](OC(C)(C)C)C(=O)O)CN(C(=O)c2ccc(Cl)cc2)C3)cc1 [Example 270, (S)-2-(tert-butoxy)-2-(2-(4-chlorobenzoyl)-4,7-dimethyl-6-(p-tolyl)isoindolin-5-yl)acetic acid]	4
Cc1c(-c2c(C)c3c(c(C)c2[C@H](OC(C)(C)C)C(=O)O)CN(C(=O)c2cccc(F)c2F)C3)cc(F)c2c1CCCO2 (atropisomer, axis not shown; (M)) [Example 176, (S)-2-(tert-butoxy)-2-((M)-2-(2,3-difluorobenzoyl)-6-(8-fluoro-5-methylchroman-6-yl)-4,7-dimethylisoindolin-5-yl)acetic acid]	4
Cc1c(-c2c(C)c3c(c(C)c2[C@H](OC(C)(C)C)C(=O)O)CN(C(=O)N2CCC(F)(F)C2)C3)ccc2c1NCCO2 (atropisomer, axis not shown; (M)) [Example 312, (S)-2-(tert-butoxy)-2-((M)-2-(3,3-difluoropyrrolidine-1-carbonyl)-4,7-dimethyl-6-(5-methyl-3,4-dihydro-2H-benzo[b][1,4]oxazin-6-yl)isoindolin-5-yl)acetic acid]	6
Cc1ccc(-c2c(C)c3c(c(C)c2[C@H](OC(C)(C)C)C(=O)O)CN(C(=O)N2CC[C@H](F)C2)C3)cc1 [Example 294, (S)-2-(tert-butoxy)-2-(2-((S)-3-fluoropyrrolidine-1-carbonyl)-4,7-dimethyl-6-(p-tolyl)isoindolin-5-yl)acetic acid]	4
Cc1ccc(-c2c(C)c3c(c(C)c2[C@H](OC(C)(C)C)C(=O)O)CN(C(=O)c2cc(F)ccc2C)C3)cc1 [Example 121, (S)-2-(tert-butoxy)-2-(2-(5-fluoro-2-methylbenzoyl)-4,7-dimethyl-6-(p-tolyl)isoindolin-5-yl)acetic acid]	4
Cc1ccc(-c2c(C)c3c(c(C)c2[C@H](OC(C)(C)C)C(=O)O)CN(C(=O)N2CCC(Cc4ccccc4)CC2)C3)cc1 [Example 95, (S)-2-(2-(4-benzylpiperidine-1-carbonyl)-4,7-dimethyl-6-(p-tolyl)isoindolin-5-yl)-2-(tert-butoxy)acetic acid]	778
Cc1ccc(-c2c(C)c3c(c(C)c2[C@H](OC(C)(C)C)C(=O)O)CN(Cc2cccc4c2OCCO4)C3)cc1 [Example 125, (S)-2-(tert-butoxy)-2-(2-((2,3-dihydrobenzo[b][1,4]dioxin-5-yl)methyl)-4,7-dimethyl-6-(p-tolyl)isoindolin-5-yl)acetic acid]	15
Cc1ccc(-c2c(C)c3c(c(C)c2[C@H](OC(C)(C)C)C(=O)O)CN(C(=O)OCC(C)(C)C)C3)cc1 [Example 287, (S)-2-(tert-butoxy)-2-(4,7-dimethyl-2-((neopentyloxy)carbonyl)-6-(p-tolyl)isoindolin-5-yl)acetic acid]	5
COc1cc(F)cc(C(=O)N2Cc3c(C)c(-c4ccc(C)cc4)c([C@H](OC(C)(C)C)C(=O)O)c(C)c3C2)c1 [Example 122, (S)-2-(tert-butoxy)-2-(2-(3-fluoro-5-methoxybenzoyl)-4,7-dimethyl-6-(p-tolyl)isoindolin-5-yl)acetic acid]	3
COc1ccc(F)c(C(=O)N2Cc3c(C)c(-c4ccc(C)cc4)c([C@H](OC(C)(C)C)C(=O)O)c(C)c3C2)c1 [Example 248, (S)-2-(tert-butoxy)-2-(2-(2-fluoro-5-methoxybenzoyl)-4,7-dimethyl-6-(p-tolyl)isoindolin-5-yl)acetic acid]	5
Cc1ccc(-c2c(C)c3c(c(C)c2[C@H](OC(C)(C)C)C(=O)O)CN(C(=O)C2CC4(CCC4)C2)C3)cc1 [Example 118, (S)-2-(tert-butoxy)-2-(4,7-dimethyl-2-(spiro[3.3]heptane-2-carbonyl)-6-(p-tolyl)isoindolin-5-yl)acetic acid]	14
Cc1c(-c2c(C)c3c(c(C)c2[C@H](OC(C)(C)C)C(=O)O)CN(C(=O)Nc2cccc(F)c2)C3)cc(F)c2c1CCCO2 (atropisomer, axis not shown; (M)) [Example 210, (S)-2-(tert-butoxy)-2-((M)-6-(8-fluoro-5-methylchroman-6-yl)-2-((3-fluorophenyl)carbamoyl)-4,7-dimethylisoindolin-5-yl)acetic acid]	14
